Among the data in ChEMBL document CHEMBL1201862, “PubChem BioAssay data set” (2004) are AC50, EC50 and CC50 values, retold here.

Molecules are shown by their SMILES. Active and inactive are the calls of the source.

The target of assay [1] is Cytochrome P450 2C19 (Homo sapiens, UniProt P33261). In words: Cytochrome panel assay with activity outcomes. Panel member name: p450-cyp2c19 Compounds with AC50 equal or less than 10 uM are considered active. It is filed as functional. As to conditions: read-out: AC50.
Sequence of Cytochrome P450 2C19 (P33261 whole entry): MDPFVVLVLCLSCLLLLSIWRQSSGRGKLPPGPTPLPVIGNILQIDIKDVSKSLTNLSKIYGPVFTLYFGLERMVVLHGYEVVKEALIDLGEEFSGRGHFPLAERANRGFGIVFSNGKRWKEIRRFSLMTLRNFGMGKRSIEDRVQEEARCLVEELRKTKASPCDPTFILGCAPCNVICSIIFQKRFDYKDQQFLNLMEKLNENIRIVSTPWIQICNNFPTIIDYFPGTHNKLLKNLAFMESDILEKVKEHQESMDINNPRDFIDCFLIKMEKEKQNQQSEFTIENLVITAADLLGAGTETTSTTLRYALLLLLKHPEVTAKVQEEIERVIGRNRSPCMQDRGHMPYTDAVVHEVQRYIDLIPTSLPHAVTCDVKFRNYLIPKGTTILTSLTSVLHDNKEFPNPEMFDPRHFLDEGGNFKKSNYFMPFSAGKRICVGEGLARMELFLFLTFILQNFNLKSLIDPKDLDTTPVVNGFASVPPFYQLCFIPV
The target in assay [2] is Cytochrome P450 2D6 (Homo sapiens, UniProt P10635).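 Also: CYP2D6 member of a cytochrome P450 panel assay.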
Sequence of Cytochrome P450 2D6 (P10635 whole entry): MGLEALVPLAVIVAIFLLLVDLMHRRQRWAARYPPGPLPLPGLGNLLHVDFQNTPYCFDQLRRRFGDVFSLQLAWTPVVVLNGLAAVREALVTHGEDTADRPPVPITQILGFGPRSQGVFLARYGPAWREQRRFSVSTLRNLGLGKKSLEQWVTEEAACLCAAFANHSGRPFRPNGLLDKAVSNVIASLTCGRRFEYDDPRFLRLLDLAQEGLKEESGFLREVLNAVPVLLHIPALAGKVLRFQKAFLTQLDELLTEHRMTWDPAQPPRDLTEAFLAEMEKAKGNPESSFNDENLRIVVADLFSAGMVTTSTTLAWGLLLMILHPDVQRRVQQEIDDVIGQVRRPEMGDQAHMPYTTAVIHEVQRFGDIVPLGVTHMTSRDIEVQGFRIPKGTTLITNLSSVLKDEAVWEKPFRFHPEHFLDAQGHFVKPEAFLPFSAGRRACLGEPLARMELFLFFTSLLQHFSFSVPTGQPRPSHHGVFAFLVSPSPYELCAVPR
Assay [3] concerns the target Cytochrome P450 3A4 (Homo sapiens, UniProt P08684).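 Also: CYP3A4 tested as one member of a cytochrome P450 panel screen.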
Assay [4] in a line: NIH3T3 cell viability loss – ATP luminescence, mouse fibroblasts, counter-screen, dose response (AID 2010).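 Also: cells exposed to compound for about 90 hours before reading.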 It is filed as functional, cell-based. On the technique in general: A counterscreen serves to expose hits that act by an unwanted route or on another target.
Assay [5] is described as follows: Trypanosoma cruzi growth suppression in host cells – NIH3T3 host cells, beta-gal luminescence, confirmation (AID 2044).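 Also: intracellular parasites grown in NIH/3T3 mouse fibroblasts as host cells; luminescent beta-galactosidase reporter signal from transgenic T. cruzi replicating inside host cells; inhibitors lower the luminescence signal.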 The class given is functional, cell-based.
Assay [6] deals with Streptococcus. The assay can be described thus: GAS UMAA2166 growth inhibition – luminescence, BacTiterGlo, counter-screen for streptokinase expression inhibitor project, dose response (AID 1915).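 Also: potency for reduction of bacterial viability or growth.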 The class given is functional, organism-based.
Assay [7] has as its target T1, Streptokinase A (Streptococcus pyogenes serotype M1, UniProt P10520).
T1 sequence (P10520 whole entry): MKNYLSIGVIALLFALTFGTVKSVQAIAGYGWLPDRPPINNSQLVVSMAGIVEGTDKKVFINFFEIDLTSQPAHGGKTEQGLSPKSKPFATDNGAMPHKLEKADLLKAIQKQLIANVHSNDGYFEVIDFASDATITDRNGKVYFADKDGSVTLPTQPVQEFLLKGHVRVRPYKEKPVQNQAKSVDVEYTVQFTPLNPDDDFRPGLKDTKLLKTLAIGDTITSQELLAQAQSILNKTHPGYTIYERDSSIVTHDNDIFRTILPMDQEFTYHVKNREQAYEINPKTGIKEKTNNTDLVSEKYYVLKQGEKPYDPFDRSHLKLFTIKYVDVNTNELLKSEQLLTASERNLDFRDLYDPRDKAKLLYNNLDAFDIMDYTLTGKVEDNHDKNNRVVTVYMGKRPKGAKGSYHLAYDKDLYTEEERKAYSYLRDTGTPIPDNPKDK
The assay can be described thus: viability-normalized secreted streptokinase activity reduction – plasminogen activation absorbance, OD405, dose response (AID 1914).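 Also: secreted streptokinase activity via plasminogen activation per viability signal from cell pellet.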 The class given is functional, Streptococcus pyogenes M1 GAS.

Assay [8] has as its system Streptococcus sp. 'group A'. The assay can be described thus: Streptococcus pyogenes SK(-)GAS viability under kanamycin – luminescence, BacTiterGlo, confirmation, counter-screen for streptokinase expression inhibitor project, dose response (AID 1900). The class given is functional, organism-based.
Assay [9] in a line: viability of uninfected HEp-2 cells – cell-based, HTS, cytotoxicity control for RSV inhibitor project, dose response (AID 2410). It is filed as functional. As to conditions: human respiratory syncytial virus.

Sequence of Cytochrome P450 3A4 (P08684 whole entry): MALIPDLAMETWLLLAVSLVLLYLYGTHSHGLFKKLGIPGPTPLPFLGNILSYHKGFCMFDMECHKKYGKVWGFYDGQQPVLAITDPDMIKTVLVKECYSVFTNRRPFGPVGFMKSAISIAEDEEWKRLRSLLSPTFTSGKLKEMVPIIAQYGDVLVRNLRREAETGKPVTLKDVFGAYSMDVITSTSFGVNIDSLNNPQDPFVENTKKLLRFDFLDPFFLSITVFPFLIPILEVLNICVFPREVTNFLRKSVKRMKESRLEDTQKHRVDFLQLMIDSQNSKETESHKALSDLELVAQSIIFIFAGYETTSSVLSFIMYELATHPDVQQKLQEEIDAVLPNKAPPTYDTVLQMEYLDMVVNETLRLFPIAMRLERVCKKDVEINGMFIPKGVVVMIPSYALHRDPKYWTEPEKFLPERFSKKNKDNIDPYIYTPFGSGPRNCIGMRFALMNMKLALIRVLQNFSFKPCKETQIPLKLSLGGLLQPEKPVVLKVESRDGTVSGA

Usually AC50 stands for the concentration giving half of the maximal activity seen. As for `COc1ccc(C2N=C(N)N=C(N)N2c2ccccc2OC)cc1OC` (centres undefined), in [1], the AC50 is 39.8 µM (inconclusive).

As to `CC[C@]1(c2cccc(O)c2)CCCCN(C)C1`, the AC50 in [2] is 10 µM (inconclusive). On to `COc1ccc(CNc2cc(-c3ccccc3Cl)ncn2)c(OC)c1`, for which, in assay [2], the AC50 is 39.8 µM (inconclusive).

Regarding `CN(C)c1ccc(/C=N\NC(=O)c2cnc3ccccc3c2)cc1`, the AC50 in assay [3] was 3.98 µM (inconclusive). For orientation: EC50 means the concentration that produces a half-maximal response. For `Cc1nn(Cc2c(F)c(F)c(F)c(F)c2F)c(C)c1NC(=O)c1ccc(COc2ccc(Cl)cc2Cl)o1`, the figures for the EC50 in assay [4] and in [5] were > 60 µM (not active) and 1.11 µM (active), respectively. As to `O=c1cnc2cnc(N3CCNCC3)nc2n1Cc1cccs1`, the AC50 is 15.8 µM (inconclusive) in [3] and 20 µM (inconclusive) in [2].

As for `CC(CC(=O)Nc1nc2ccccc2[nH]1)c1ccccc1` (centres undefined), the concentration for a half-maximal effect (EC50) in assay [6], in assay [7] and in assay [8] was > 150 µM (not active) throughout. Regarding `Cc1ccccc1S(=O)(=O)c1c(C)cc(-c2ccccc2)nc1O`, the AC50 in [3] was 28.2 µM (inconclusive). `CN(C)Cc1ccccc1-c1nccc(Nc2ccc(F)cc2)n1`: the AC50 in assay [3] is 15.8 µM (inconclusive). Consider `CCSc1nnc(NC(=O)c2nc(-c3ccccc3)n(-c3ccccc3)n2)s1`, for which the values for the EC50 in assay [6], in [7] and in assay [8] were 16.5 µM (active), 20.2 µM (active) and 7.28 µM (active), respectively.

`CCC(=O)N(CCC(Cc1ccccc1)c1ccc2c(c1)OCO2)Cc1ccccc1F` (centres undefined): the results for the EC50 in [6], in assay [7] and in assay [8] were 40.3 µM (active), 10.7 µM (active) and 12.2 µM (active), respectively. For `COc1ccc(/C=C2\SC(=O)N(CCNC(=O)C3CC(=O)N(c4ccccc4)C3)C2=O)cc1` (centres undefined), the AC50 in assay [2] is 20 µM (inconclusive). As to `CCCN1CCN(CCCNC(=O)Cn2nc(-c3ccc(C)cc3)ccc2=O)CC1`, the AC50 in assay [2] was 20 µM (inconclusive). As for `O=C(COc1cccnc1[N+](=O)[O-])N1N=C(c2ccc(Cl)cc2)CC1c1ccco1` (centres undefined), the EC50 in assay [4] is > 60 µM (not active); in assay [5], 2.8 µM (active). Regarding `CC(C)=CCC/C(C)=C/CO/N=C1/C[C@@H](O)[C@@H](O)[C@@H]2[C@H]3C(=O)N(c4ccc(F)cc4F)C(=O)[C@@H]3CC[C@H]12`, in assay [3], the AC50 is 3.98 µM (inconclusive). In the case of `Cc1ccc(Sc2cc(C(=O)NCCCN(C)C)c3ccccc3n2)cc1`, the 50% effective concentration (EC50) was 14.6 µM (active) in [4] and 0.133 µM (active) in assay [5]. Consider `COc1ccc(N2CCN(CC(=O)Nc3nc4c(s3)CC(C)CC4)CC2)cc1` (centres undefined), for which the values for the EC50 in assay [6], in [7] and in assay [8] were > 150 µM (not active), > 150 µM (not active) and 23.8 µM (active), respectively. `O=C(COn1nnc2ccc(C(F)(F)F)cc21)Nc1nnc(-c2ccccc2)o1`: the half-maximal effective concentration (EC50) in assay [6] is 3.65 µM (active); in [8] it was 2.77 µM (active). In the case of `Cc1cccc(-n2nc([N+](=O)[O-])c(NCc3cccnc3)[n+]2[O-])c1`, the concentration for a half-maximal effect (EC50) in assay [4] is > 60 µM (not active); in [5] it was 0.582 µM (active). For the same compound, the AC50 in assay [2] is 12.6 µM (inconclusive). In the case of `O=c1c(-c2ccc(F)cc2)nc2cncnc2n1-c1ccccc1`, the AC50 in assay [3] is 12.6 µM (inconclusive); in assay [2] it was 20 µM (inconclusive). With `CCCNC(=O)OC[C@@H]1O[C@H](c2ccccc2)C=C[C@@H]1Oc1ccc(OC)cc1`, the concentration at half-maximal activity (AC50) in [2] was 3.16 µM (inconclusive).

Consider `S=C(Nc1ccccc1)Nc1ccccc1C#Cc1ccccc1`, for which the figures for the concentration at half-maximal activity (AC50) in assay [3] and in assay [2] were 7.94 µM (inconclusive) and 15.8 µM (inconclusive), respectively.

As to `O=c1c(CCc2ccccc2)nc2cnc(N3CCNCC3)nc2n1C1CC1`, the AC50 was 12.6 µM (inconclusive) in assay [3] and 39.8 µM (inconclusive) in assay [2]. On to `COc1cccc(-c2nccc(NCc3cccnc3)n2)c1`, for which, in assay [2], the concentration at half-maximal activity (AC50) was 25.1 µM (inconclusive). Regarding `COC(=O)[C@@]1(Cc2ccc(OC)cc2)[C@H]2c3cc(C(=O)N4CCCC4)n(CCc4ccc(O)c(O)c4)c3C[C@H]2CN1C(=O)c1ccccc1`, in assay [2], the concentration at half-maximal activity (AC50) is 39.8 µM (inconclusive).

`O=C(Nc1ccccc1)N1CCCC2(CCN(C(=O)c3cccc(F)c3)CC2)C1`: in [1], the AC50 was 10 µM (inconclusive).

On to `COc1ccc(N2CC(C(=O)Nc3nnc(SCc4cccnc4)s3)CC2=O)cc1` (centres undefined), for which the concentration giving a half-maximal response (EC50) in [6], in assay [7] and in assay [8] was > 150 µM (not active) in each case. On to `COc1ccccc1N1CCN(C/C=C/c2ccc(N(C)C)cc2)CC1`, for which the concentration giving a half-maximal response (EC50) in assay [4] is > 60 µM (not active); in [5], 1.46 µM (active). On to `Cc1ccc(C(c2nnnn2C2CCCC2)N2CCN3CCCC3C2)cc1` (centres undefined), for which, in assay [1], the half-maximal activity concentration (AC50) is 31.6 µM (inconclusive). As for `Cn1nc(C(=O)NC2CCCCC2)c2ccccc2c1=O`, the AC50 was 5.01 µM (inconclusive) in assay [3] and 10 µM (inconclusive) in [2]. With `Cc1c(Cc2ccccc2)c(=O)oc2cc(OCc3ccc(C(=O)O)cc3)ccc12`, the values for the concentration giving a half-maximal response (EC50) in assay [6], in assay [7] and in assay [8] were > 50 µM (not active), > 150 µM (not active) and 7.39 µM (active), respectively. As to `COc1cccc(CC2(CO)CCCN(C/C=C/c3ccccc3OC)C2)c1` (centres undefined), the half-maximal effective concentration (EC50) in assay [4] is > 60 µM (inconclusive); in [5], 0.209 µM (active).

For `CCCCCC(=O)Nc1cccc(C2=NOC3(C2)C[C@@H](C(N)=O)N(C(=O)c2ccc(Cl)cc2)C3)c1` (some centres undefined), the EC50 was > 30 µM (not active) in [4] and 0.374 µM (active) in [5].

For `Cc1cc(Br)ccc1NC(=O)CN1C(=O)C2C3CC(c4ccccc4)C(C3)C2C1=O` (centres undefined), the half-maximal effective concentration (EC50) in assay [4] is > 60 µM (not active); in assay [5] it was 2.6 µM (active). As to `Cc1ccc(S(=O)(=O)Nc2ccc(Cl)cc2)cc1NC(=O)c1cc2c(s1)CCCC2`, the 50% effective concentration (EC50) is 25.8 µM (active) in assay [4]; 14.9 µM (active) in assay [6]; > 150 µM (not active) in assay [7]; 4.39 µM (active) in [8]; 1.18 µM (active) in [5].

For `COc1ccccc1-c1cc(-c2ccccc2)nc(SCC(=O)O)c1C#N`, the EC50 was 13.4 µM (active) in [6], 1.72 µM (active) in assay [7] and 3.36 µM (active) in assay [8]. Turning to `C/C(CCN1CCCc2nc(C)c(C)cc21)=N\OC[C@@H](O)COCc1ccco1`, the AC50 in [2] is 3.16 µM (inconclusive). As to `COc1ccc2sc(N(CCCN(C)C)C(=O)c3ccc(S(=O)(=O)N4CCCc5ccccc54)cc3)nc2c1`, the EC50 in [4] was 5.35 µM (active); in assay [5] it was 0.139 µM (active). Take `CCc1ncc(CO)n1Cc1cccc2ccccc12`: the AC50 in [1] was 0.398 µM (inconclusive).

Consider `CNc1ccnc(-c2ccccc2C(F)(F)F)n1`, for which the half-maximal activity concentration (AC50) in [1] and in [3] was 25.1 µM (inconclusive) in each case. For the compound `COc1ccc(OC)c(-c2cc(C(=O)Nc3cccc(Cl)c3)no2)c1`, the EC50 in assay [4] was > 30 µM (not active); in assay [5], 2.43 µM (active). Turning to `CCCS(=O)(=O)N1CCCC(C(=O)NCCN(C)Cc2ccccc2)C1` (centres undefined), in [2], the AC50 was 5.01 µM (inconclusive).

`N#Cc1cccc(NC(=O)N2CC[C@@]3(CCCNC3)C2)c1`: the half-maximal activity concentration (AC50) in assay [3] is 25.1 µM (inconclusive).

Turning to `Cn1c(S)nnc1-c1cc(Br)ccc1O`, the concentration giving a half-maximal response (EC50) in assay [6] is > 150 µM (not active); in assay [8] it was 11 µM (active). As usually defined, the CC50 is the concentration that lowers cell viability or growth by half. On to `Nc1ncnc(Nc2cccc(Cl)c2Cl)n1`, for which the CC50 in assay [9] was 26.1 µM (active). `COc1ccc(C2C(=O)N(CCc3ccccc3)CC(=O)N2C2CCCC2)cc1` (centres undefined): in assay [2], the AC50 is 14.1 µM (inconclusive). Regarding `CN(C)c1ncc2nc(-c3cccs3)c(=O)n(Cc3cccs3)c2n1`, in [3], the AC50 was 3.16 µM (inconclusive). Regarding `COCCNc1nc(-c2ccc(N(C)C)cc2)nc2ccccc12`, the half-maximal activity concentration (AC50) in [2] is 39.8 µM (inconclusive). For the compound `CC(C)(C)c1ccc(O)c(/N=C/c2c(O)ccc3ccccc23)c1`, the concentration giving a half-maximal response (EC50) in [6] was > 150 µM (not active); in assay [7], > 150 µM (not active); in assay [8] it was 5.5 µM (active). On to `Cc1ccc(C)c(/C=N/NC(=S)NCCc2ccccc2)c1`, for which the results for the EC50 in assay [6], in assay [7] and in assay [8] were > 150 µM (not active), > 150 µM (not active) and 32.3 µM (active), respectively. In the case of `Nc1cc(Cl)nc(N/N=C/c2ccccc2[N+](=O)[O-])n1`, the AC50 in [1] is 8.91 µM (inconclusive). `Cc1c(-c2ccc(O)cc2)nn(-c2ccc(O)cc2)c1-c1ccc(OCCN2CCCCC2)cc1`: in [3], the AC50 was 3.16 µM (inconclusive).

As for `CCc1ccc(C2=Nn3c(nnc3-c3cccs3)SC2)cc1`, the AC50 in assay [1] was 5.62 µM (inconclusive).
